Measured values reported in US6784165B1, “Treatment of heart rhythm disturbances with N6-substituted-5′-(N-substituted) carboxamidoadenosines” (Aderis Pharmaceuticals, Inc., priority 1999, dated 2004).

Tests used:
[1] = system: guinea pig isolated heart; assay: Guinea pig isolated heart paced at 300-360 bpm: AV conduction interval versus coronary perfusate flow
Protocol: (§1) Guinea pig isolated hearts were prepared according to the methods described in Example 5. In the first portion of the experiment designed to determine the effect of heart rate on the negative dromotropic activity of Compound A, hearts were allowed to beat spontaneously or electrically paced either at 200 beats per minute (approximately 20% above the spontaneous rate) or at 300-360 beats per minute (approximately 80% above the spontaneous rate). Atrioventricular (AV) conduction interval (AV interval) was determined as the time from the atrial stimulus to the beginning of ventricular depolarization. The AV interval measurements were performed at each pacing rate with increased concentrations of Compound A as described in Example 5. Upon electrical pacing at 200 beats per minute, Compound A at a mean concentration of 3.9 nM produced a mean maximal 58% increase in AV interval, and heart block at a mean minimal concentration of 5.1 nM. […] The results are summarized in the table below, with data from spontaneously beating hearts included for comparative purposes:
In order to determine the differential potencies of Compound A for negative […] activity versus coronary vasodilation in paced hearts, a different set of experiments was conducted in which individual hearts were used to collect measurements for each action. Experimental conditions as described in Example 6 were used, with guinea pig isolated hearts being paced at 300-360 beats per minute. AV conduction interval was determined as described in Example 6. Coronary perfusate flow data was determined by measuring the volume of fluid leaving the heart. AV conduction interval data and coronary perfusate flow data were collected in the presence of increasing concentrations of Compound A. The results are shown in FIG. 3, with dose-related increases for both AV conduction interval and coronary perfusate flow. The differential for these effects is readily apparent. The mean concentration of Compound A that produced a maximal increase in AV conduction time was 0.76 nM.

[2] = system: adenosine A1 receptor; assay: Rat isolated Langendorff heart paced at 360 bpm: AV conduction (S-V interval) and coronary blood flow; details: at 6.8 nM and 8.3 nM, rat isolated heart
Protocol: (§2) Rat isolated hearts were prepared according to the method of Langendorff in which the coronary vasculature was perfused in a retrograde fashion at constant pressure via the aorta. Coronary blood flow was determined by measuring the volume of fluid leaving the heart. Heart rate was maintained at 360 beats per minute by electrical pacing of the right atrium. Atrioventricular (AV) conduction was determined as the time from the atrial stimulus to the beginning of ventricular depolarization (S-V interval).

[3] = target: T1, adenosine A1 receptor (Rattus norvegicus, UniProt P25099); assay: as above; set-up: Rat isolated hearts were prepared according to the method of Langendorff; from tissue; host or cells: rat isolated perfused heart (Langendorff); details: rat isolated heart paced at 360 beats per minute
T1 sequence (P25099 1-326): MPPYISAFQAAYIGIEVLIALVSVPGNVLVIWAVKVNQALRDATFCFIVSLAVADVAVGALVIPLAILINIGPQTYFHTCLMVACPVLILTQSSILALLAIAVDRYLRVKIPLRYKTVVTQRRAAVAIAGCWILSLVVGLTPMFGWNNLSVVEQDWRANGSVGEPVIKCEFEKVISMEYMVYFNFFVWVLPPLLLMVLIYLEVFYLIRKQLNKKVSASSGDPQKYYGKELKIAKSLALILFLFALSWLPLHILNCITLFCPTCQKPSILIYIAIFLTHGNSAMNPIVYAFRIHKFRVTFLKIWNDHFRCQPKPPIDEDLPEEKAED
Protocol: as §2

[4] = target: T1, adenosine A1 receptor; assay: Negative inotropic response in electrically stimulated rat isolated left atria (isoproterenol-stimulated); set-up: from tissue; host or cells: whole animal (conscious Sprague-Dawley rats); details: plateau negative inotropic response, 1 Hz, isoproterenol 10^−8 M
Text: Concentration dose-effect curve data were fitted to a sigmoid curve using Graphpad PRIZM™ software to obtain the concentration or dose of test compound that produces 50% of the maximal obtainable response, in vitro EC50 or in vivo ED50 values, for activation of the adenosine A1 receptor. Responses measured to each dose were the plateau negative inotropic response to cumulative additions of test compound in the isolated left atria and the peak bradycardia in response to bolus intravenous injections of test compound in conscious rats. Oral bioavailability was estimated from pharmacodynamic responses using the expression: (Response AUCoral/Response AUCiv)(Doseiv/Doseoral), where Response AUC is the area under the curve for test compound-induced bradycardia over time.
Male Sprague-Dawley rats weighing 200-350 grams were sacrificed and the hearts rapidly removed and placed in a warmed Krebs-Henseleit buffer solution. The left atria were dissected free from the hearts and suspended in 30 mL jacketed isolated organ baths filled with Krebs-Henseleit buffer, oxygenated with 95% O2/5% CO2 and maintained at 37° C. Tissues were connected to a force displacement transducer under a resting tension of 1 gram. Atria were stimulated electrically at 1 Hz, 1 msec duration and supramaximal voltage to produce regular contractions of tissue.
Adenosine A1 agonists were added to the baths at increasing cumulative concentrations until a maximal decrease in the force of contraction was obtained. Because adenosine A1 agonists have only a small direct negative inotropic action in rat atria, it was necessary to stimulate β-adrenergic receptors to produce positive inotropy in order to maximize the negative intropic response and thereby facilitate measurement. Under these conditions, adenosine A1 agonists acting at A1 receptors indirectly reduce the β-adrenergic mediated positive inotropy. Accordingly, the β-adrenergic agonist isoproterenol (10^−8 M) was added to the organ baths approximately 15 minutes before the addition of the adenosine A1 agonist.

[5] = system: guinea pig isolated heart; assay: Guinea pig isolated heart model of paroxsymal supraventricular tachycardia (200/300/200 bpm pacing)
Protocol: as §1
Using the experimental conditions described in Example 6, individual hearts were paced at 200 bpm for one minute followed abruptly by one minute of pacing at 300 bpm, after which the pacing rate was returned to 200 bpm. The 300 bpm pacing cycle was intended to simulate an episode of supraventricular tachycardia. This pacing sequence was conducted in the presence of vehicle and in the presence of increasing concentrations of Compound A. The results are expressed in FIG. 2. Compound A, at a mean concentration of 2 nM that had little effect on AV interval at 200 bpm induced AV block within 30 seconds during the 300 bpm episode.

[6] = paced at 300-360 beats per minute

EC50 [4]: 15.5 nM
SMILES: CCNC(=O)[C@H]1O[C@@H](n2cnc3c(NC4CCCC4)ncnc32)[C@H](O)[C@@H]1O [Compound A, ethyl N^6-cyclopentyladenosine-5′-uronamide]
EC50 ([1]; Cavia porcellus, paced at 300-360 beats per minute, read-out: EC50 for increase in coronary perfusate flow): 32 nM | mean coronary perfusate flow rate reached ([1]; increase from a mean flow rate of 8.5 mL/min, paced at 300-360 bpm): 14.2 mL/min | mean concentration producing heart block [1, 6]: 1.09 nM | mean concentration that produced a maximal increase in AV conduction time [1, 6]: 0.76 nM | potency at slowing AV conduction versus increasing coronary perfusate flow [1, 6]: greater than 40 fold | mean maximal increase in AV interval ([1]; paced at 300-360 beats per minute, at 0.76 nM): 23% | effect on coronary blood flow [2]: no effect | mean concentration at maximal increase in S-V interval [3]: 6.8 nM | mean concentration for AV conduction blockade [3]: 8.3 nM | effect on AV interval at 200 bpm pacing ([5]; 2 nM, 200 bpm pacing before the episode): little effect | time to AV block during the 300 bpm episode ([5]; 2 nM, 300 bpm pacing): ≤ 30 s | AV interval when pacing was returned to 200 bpm ([5]; 2 nM, after the 300 bpm episode): returned to near normal values | mean concentration inducing AV block during the 300 bpm pacing episode ([5]; PSVT model, 300 bpm episode): 2 nM
